Assays:
Vero cells = details: CC50 Vero cells / MIC Mtb H37Rv
M. fortuitum ATCC 6841 = assay: Antimycobacterial broth microdilution MIC, non-tuberculous mycobacteria; format: cell-based; details: 48 h
M. chelonae ATCC 35752 = assay: as above; format: cell-based; details: 48 h

Row | Compound | SI selectivity index (CC50/MIC) (Vero cells) | MIC M. fortuitum ATCC 6841 (M. fortuitum ATCC 6841) | MIC M. chelonae ATCC 35752 (M. chelonae ATCC 35752)
1 | COC(=O)c1cc(-c2cccc(NC(=O)Nc3ccccc3OC)c2)on1 [4d, Methyl 5-(3-(3-(2-methoxyphenyl)ureido)phenyl)isoxazole-3-carboxylate] | < 20 | – | –
2 | COC(=O)c1cc(-c2cccc(NC(=O)Nc3ccc(F)cc3)c2)on1 [4j, Methyl 5-(3-(3-(4-fluorophenyl)ureido)phenyl)isoxazole-3-carboxylate] | > 200 | – | –
3 | COC(=O)c1cc(-c2cccc(NC(=O)Nc3ccc(C(F)(F)F)cc3)c2)on1 [4n, Methyl 5-(3-(3-(4-(trifluoromethyl)phenyl)ureido)phenyl)isoxazole-3-carboxylate] | > 50 | – | –
4 | COC(=O)c1cc(-c2cccc(NC(=O)Nc3ccc(Cl)cc3Cl)c2)on1 [4r, Methyl 5-(3-(3-(2,4-dichlorophenyl)ureido)phenyl)isoxazole-3-carboxylate] | > 50 | – | –
5 | COC(=O)c1cc(-c2ccc(NC(=O)Nc3ccc(Cl)c(Cl)c3)cc2)on1 [4tb, Methyl 5-(4-(3-(3,4-dichlorophenyl)ureido)phenyl)isoxazole-3-carboxylate] | > 80 | – | –
6 | COC(=O)c1cc(-c2cccc(NC(=O)Nc3cc(OC)ccc3OC)c2)on1 [4w, Methyl 5-(3-(3-(2,5-dimethoxyphenyl)ureido)phenyl)isoxazole-3-carboxylate] | < 20 | – | –
7 | COC(=O)c1cc(-c2cccc(NC(=S)Nc3ccc(Cl)cc3)c2)on1 [5f, Methyl 5-(3-(3-(4-chlorophenyl)thioureido)phenyl)isoxazole-3-carboxylate] | > 50 | – | –
8 | COC(=O)c1cc(-c2cccc(NC(=S)Nc3ccc(C#N)cc3)c2)on1 [5i, Methyl 5-(3-(3-(4-cyanophenyl)thioureido)phenyl)isoxazole-3-carboxylate] | – | weaker inhibition | weaker inhibition
9 | COC(=O)c1cc(-c2cccc(NC(=S)Nc3ccc(F)cc3F)c2)on1 [5k, Methyl 5-(3-(3-(2,4-difluorophenyl)thioureido)phenyl)isoxazole-3-carboxylate] | – | weaker inhibition | weaker inhibition
10 | COC(=O)c1cc(-c2cccc(NC(=S)Nc3ccc(F)c(Cl)c3)c2)on1 [5m, Methyl 5-(3-(3-(3-chloro-4-fluorophenyl)thioureido)phenyl)isoxazole-3-carboxylate] | – | weaker inhibition | weaker inhibition
